According to the NIST ThermoML archive (doi:10.1021/je200757a):

Columns and labels:
[1] = refractive index (Na D-line) (dimensionless); xn = mol fraction of the nth substance listed; conditions: 101 kPa, Liquid
[2] = xn = mol fraction of the nth substance listed; conditions: for viscosity / mass density: 101 kPa, Liquid; for viscosity: Capillary tube (Ostwald / Ubbelohde) method; for mass density: Vibrating tube method

C1C[C@@H]2[C@H]3CC[C@H](C3)[C@@H]2C1 [exo-tetrahydrodicyclopentadiene] + CCCCCCCCC
Conditions | mass density, 293.15 K [kg/m3] | mass density, 298.15 K [kg/m3] | mass density, 303.15 K [kg/m3] | mass density, 313.15 K [kg/m3] | refractive index, 293.15 K | refractive index, 303.15 K | viscosity, 293.15 K [mPa·s] | viscosity, 298.15 K [mPa·s] | viscosity, 303.15 K [mPa·s] | viscosity, 313.15 K [mPa·s]
[1], x2 = 0 | – | – | – | – | 1.4877 | 1.4832 | – | – | – | –
[1], x2 = 0.1089 | – | – | – | – | 1.4777 | 1.4728 | – | – | – | –
[1], x2 = 0.2212 | – | – | – | – | 1.4667 | 1.4627 | – | – | – | –
[1], x2 = 0.3244 | – | – | – | – | 1.457 | 1.4517 | – | – | – | –
[1], x2 = 0.4159 | – | – | – | – | 1.45 | 1.445 | – | – | – | –
[1], x2 = 0.5099 | – | – | – | – | 1.4422 | 1.4377 | – | – | – | –
[1], x2 = 0.6161 | – | – | – | – | 1.4332 | 1.4282 | – | – | – | –
[1], x2 = 0.7128 | – | – | – | – | 1.426 | 1.421 | – | – | – | –
[1], x2 = 0.8078 | – | – | – | – | 1.4192 | 1.4139 | – | – | – | –
[1], x2 = 0.9133 | – | – | – | – | 1.4114 | 1.4062 | – | – | – | –
[2], x2 = 0 | 935.3 | 931.4 | 927.5 | 919.6 | – | – | 3.077 | 2.784 | 2.525 | 2.112
[2], x2 = 0.1089 | 907.6 | 903.7 | 899.8 | 891.9 | – | – | 2.455 | 2.229 | 2.04 | 1.728
[2], x2 = 0.2212 | 880.1 | 876.2 | 872.3 | 864.4 | – | – | 2.005 | 1.836 | 1.687 | 1.441
[2], x2 = 0.3244 | 855.8 | 851.9 | 848 | 840.1 | – | – | 1.683 | 1.545 | 1.426 | 1.227
[2], x2 = 0.4159 | 835.1 | 831.2 | 827.2 | 819.4 | – | – | 1.459 | 1.344 | 1.244 | 1.077
[2], x2 = 0.5099 | 814.5 | 810.6 | 806.6 | 798.8 | – | – | 1.277 | 1.176 | 1.091 | 0.951
[2], x2 = 0.6161 | 792 | 788.1 | 784.2 | 776.3 | – | – | 1.109 | 1.028 | 0.958 | 0.839
[2], x2 = 0.7128 | 772.3 | 768.4 | 764.5 | 756.7 | – | – | 0.985 | 0.917 | 0.856 | 0.754
[2], x2 = 0.8078 | 753.7 | 749.8 | 745.9 | 738 | – | – | 0.887 | 0.827 | 0.775 | 0.686
[2], x2 = 0.9133 | 733.7 | 729.8 | 725.9 | 718.1 | – | – | 0.795 | 0.744 | 0.699 | 0.622

surface tension liquid-gas [mN/m], [2], Capillary rise
Conditions | x2 = 0 | x2 = 0.1089 | x2 = 0.2212 | x2 = 0.3244 | x2 = 0.4159 | x2 = 0.5099 | x2 = 0.6161 | x2 = 0.7128 | x2 = 0.8078 | x2 = 0.9133
293.15 K | 31.86 | 30.17 | 27.92 | 27.12 | 26.34 | 25.59 | 24.35 | 23.84 | 23.14 | 22.6
303.15 K | 31.09 | 29.01 | 27.45 | 26.63 | 25.74 | 24.86 | 23.36 | 22.88 | 22.39 | 21.81

C1C[C@@H]2[C@H]3CC[C@H](C3)[C@@H]2C1 [exo-tetrahydrodicyclopentadiene] + CCCCCCCCCCCC
Conditions | mass density, [2] [kg/m3] | refractive index, [1] | surface tension liquid-gas, [2] [mN/m] | viscosity, [2] [mPa·s]
293.15 K, x2 = 0 | 935.3 | 1.4877 | 31.86 | 3.077
293.15 K, x2 = 0.0803 | 913 | 1.4796 | 30.13 | 2.796
293.15 K, x2 = 0.1712 | 889.9 | 1.4711 | 29.15 | 2.54
293.15 K, x2 = 0.2563 | 870 | 1.462 | 28.63 | 2.34
293.15 K, x2 = 0.3428 | 851.4 | 1.4573 | 27.95 | 2.169
293.15 K, x2 = 0.4443 | 831.4 | 1.4502 | 27.32 | 2.006
293.15 K, x2 = 0.5407 | 814.1 | 1.4448 | 26.32 | 1.881
293.15 K, x2 = 0.6527 | 795.7 | 1.4383 | 25.94 | 1.764
293.15 K, x2 = 0.7596 | 779.8 | 1.4325 | 25.67 | 1.672
293.15 K, x2 = 0.8855 | 762.7 | 1.4271 | 24.51 | 1.574
298.15 K, x2 = 0 | 931.4 | – | – | 2.784
298.15 K, x2 = 0.0803 | 909.1 | – | – | 2.535
298.15 K, x2 = 0.1712 | 886.1 | – | – | 2.307
298.15 K, x2 = 0.2563 | 866.2 | – | – | 2.127
298.15 K, x2 = 0.3428 | 847.7 | – | – | 1.974
298.15 K, x2 = 0.4443 | 827.7 | – | – | 1.827
298.15 K, x2 = 0.5407 | 810.4 | – | – | 1.715
298.15 K, x2 = 0.6527 | 792 | – | – | 1.61
298.15 K, x2 = 0.7596 | 776.1 | – | – | 1.526
298.15 K, x2 = 0.8855 | 759.1 | – | – | 1.438
303.15 K, x2 = 0 | 927.5 | 1.4832 | 31.09 | 2.525
303.15 K, x2 = 0.0803 | 905.2 | 1.4733 | 29.37 | 2.308
303.15 K, x2 = 0.1712 | 882.2 | 1.4657 | 28.51 | 2.104
303.15 K, x2 = 0.2563 | 862.4 | 1.4571 | 27.82 | 1.944
303.15 K, x2 = 0.3428 | 843.9 | 1.4524 | 26.77 | 1.807
303.15 K, x2 = 0.4443 | 824 | 1.4455 | 26.51 | 1.674
303.15 K, x2 = 0.5407 | 806.6 | 1.4396 | 25.84 | 1.572
303.15 K, x2 = 0.6527 | 788.3 | 1.4333 | 25.68 | 1.476
303.15 K, x2 = 0.7596 | 772.5 | 1.4279 | 24.58 | 1.4
303.15 K, x2 = 0.8855 | 755.5 | 1.4214 | 23.82 | 1.321
313.15 K, x2 = 0 | 919.6 | – | – | 2.112
313.15 K, x2 = 0.0803 | 897.4 | – | – | 1.939
313.15 K, x2 = 0.1712 | 874.5 | – | – | 1.775
313.15 K, x2 = 0.2563 | 854.7 | – | – | 1.644
313.15 K, x2 = 0.3428 | 836.2 | – | – | 1.532
313.15 K, x2 = 0.4443 | 816.4 | – | – | 1.422
313.15 K, x2 = 0.5407 | 799.2 | – | – | 1.337
313.15 K, x2 = 0.6527 | 780.9 | – | – | 1.257
313.15 K, x2 = 0.7596 | 765.1 | – | – | 1.193
313.15 K, x2 = 0.8855 | 748.1 | – | – | 1.128

C1C[C@@H]2[C@H]3CC[C@H](C3)[C@@H]2C1 [exo-tetrahydrodicyclopentadiene] + CCCCCCCCCCCCC
Conditions | mass density, [2] [kg/m3] | refractive index, [1] | surface tension liquid-gas, [2] [mN/m] | viscosity, [2] [mPa·s]
293.15 K, x2 = 0 | 935.3 | 1.4877 | 31.86 | 3.077
293.15 K, x2 = 0.0757 | 913.9 | 1.4795 | 30.4 | 2.88
293.15 K, x2 = 0.1546 | 893.5 | 1.4726 | 29.63 | 2.703
293.15 K, x2 = 0.2392 | 873.7 | 1.4662 | 28.55 | 2.552
293.15 K, x2 = 0.3284 | 854.6 | 1.4586 | 28.03 | 2.419
293.15 K, x2 = 0.4236 | 836.3 | 1.4528 | 27.19 | 2.302
293.15 K, x2 = 0.5258 | 818.7 | 1.4468 | 26.68 | 2.198
293.15 K, x2 = 0.632 | 802.3 | 1.4407 | 25.95 | 2.108
293.15 K, x2 = 0.7477 | 786.3 | 1.4349 | 25.54 | 2.028
293.15 K, x2 = 0.8665 | 771.5 | 1.4306 | 25.19 | 1.963
298.15 K, x2 = 0 | 931.4 | – | – | 2.784
298.15 K, x2 = 0.0757 | 910 | – | – | 2.609
298.15 K, x2 = 0.1546 | 889.7 | – | – | 2.448
298.15 K, x2 = 0.2392 | 869.9 | – | – | 2.311
298.15 K, x2 = 0.3284 | 850.9 | – | – | 2.189
298.15 K, x2 = 0.4236 | 832.6 | – | – | 2.082
298.15 K, x2 = 0.5258 | 815 | – | – | 1.992
298.15 K, x2 = 0.632 | 798.7 | – | – | 1.913
298.15 K, x2 = 0.7477 | 782.7 | – | – | 1.842
298.15 K, x2 = 0.8665 | 767.9 | – | – | 1.789
303.15 K, x2 = 0 | 927.5 | 1.4832 | 31.09 | 2.525
303.15 K, x2 = 0.0757 | 906.1 | 1.4743 | 29.94 | 2.37
303.15 K, x2 = 0.1546 | 885.9 | 1.4683 | 28.98 | 2.233
303.15 K, x2 = 0.2392 | 866.1 | 1.4614 | 28.38 | 2.112
303.15 K, x2 = 0.3284 | 847.1 | 1.4541 | 27.21 | 2
303.15 K, x2 = 0.4236 | 828.9 | 1.4483 | 26.74 | 1.904
303.15 K, x2 = 0.5258 | 811.3 | 1.442 | 25.72 | 1.822
303.15 K, x2 = 0.632 | 795 | 1.4357 | 25.38 | 1.748
303.15 K, x2 = 0.7477 | 779 | 1.4305 | 24.83 | 1.689
303.15 K, x2 = 0.8665 | 764.3 | 1.4258 | 24.5 | 1.631
313.15 K, x2 = 0 | 919.6 | – | – | 2.112
313.15 K, x2 = 0.0757 | 898.4 | – | – | 1.975
313.15 K, x2 = 0.1546 | 878.2 | – | – | 1.86
313.15 K, x2 = 0.2392 | 858.4 | – | – | 1.759
313.15 K, x2 = 0.3284 | 839.5 | – | – | 1.669
313.15 K, x2 = 0.4236 | 821.4 | – | – | 1.587
313.15 K, x2 = 0.5258 | 803.9 | – | – | 1.521
313.15 K, x2 = 0.632 | 787.7 | – | – | 1.466
313.15 K, x2 = 0.7477 | 771.8 | – | – | 1.416
313.15 K, x2 = 0.8665 | 757 | – | – | 1.369
